# Experimental data published in patent US20260069584A1, “METHODS OF TREATING CHRONIC MYELOID LEUKEMIA USING THE TYROSINE KINASE INHIBITOR VODOBATINIB” (Sun Pharma Advanced Research Company Ltd., priority 2022, published 2026).
# Tested on: AP CML, BP CML and Ph+ ALL
# Assay: Part B: disease response in AP CML, BP CML and Ph+ ALL subjects
# Type: in vivo, human
# Text: This was a Phase I/2, open-label, single-agent, multicenter, multi-dose, dose-escalation study in subjects with Philadelphia chromosome-positive Ph+ CML (CP CML, AP CML and BP CML) and Ph+ ALL. The primary objectives of this study were to determine the maximum tolerated dose (MTD; or recommended Phase 2 dose [RP2D]) of the compound of Formula I when administered orally and to evaluate its safety.
# In this study, the dose-escalation cohort started with an accelerated titration study design (ATD) and shifted to a 3±3 design when subjects in the preceding ATD cohort experienced either grade 2 or higher adverse events (AEs) or dose-limiting toxicity (DLT) during Cycle 1 that was not clearly and incontrovertibly related to the underlying disease or concomitant medications. The DLT period consisted of 28 days (Cycle 1). Subjects experiencing DLTs were managed with dose delays and/or discontinuation and continued in the study until disease progression. Decisions to advance to a succeeding dose level occurred after the evaluation of safety and tolerability data for a given dose level.
# Accordingly, the eligible subjects were treated in 4-week cycles of once daily self-administration of the compound of Formula I. The administration was after an overnight fast, or after maintaining approximately 2 hours of fasting before and after the dosing in all cycles.
# For the cohorts, where the 3±3 design applies, 3 subjects were enrolled initially. If 2 of these subjects experienced a Grade 2 or more toxicity (that was not clearly and incontrovertibly related to the underlying disease or concomitant medications), subsequent cohorts were escalated according to smaller increments. Further, if there were no DLTs in the first 3 subjects, dose escalation to the next higher dose level was allowed to proceed. If 1 of the 3 subjects experienced a DLT, that dose level was expanded to 6 subjects (3 additional subjects were enrolled). If 2 subjects at a given dose level experienced a DLT, the MTD was considered to have been exceeded. The next lower dose level was expanded to 6 subjects, or if 6 subjects had already been enrolled and no more than 1 of the 6 subjects experienced a DLT, then this lower dose level was considered the MTD. Additional subjects were enrolled in dose escalation cohorts for further assessment of safety and efficacy of the compound of Formula 1 at doses that were tolerated (i.e., doses that have <2 DLTs in 6 enrolled subjects or <1 DLT in 3 enrolled subjects). Thus 204 mg was arrived at as MTD. A subject experiencing a DLT was allowed to continue therapy with a reduced dose. Subjects who experienced a DLT and recovered were treated at the next lower dose level until disease progression or other events requiring further dose reduction existed. For cohorts at Dose Level 2 or higher, a further dose reduction (i.e., up to 2 levels lower than their originally assigned dose) was implemented in the case of a further DLT or other non-DLT events requiring a dose reduction, if and when the event leading to dose reduction returned to Grade 1 or lower in severity. The reduced dose was re-escalated to the original or higher dose (i.e., the dose for which safety had been established in the dose escalation cohort) considering subject safety and response to the compound of Formula I. The subject was discontinued from treatment using the compound of Formula I, if dose reduction below 48 mg was required.
# The study was conducted over a period of 60 months (5 years) which was divided in 28-days cycle. In the first two cycles, the dose administration was started on day 1 and the subject's assessments were performed on day 1, day 2, day 3, day 8, day 15 and day 22. From Cycle 3 onwards, the assessments were performed every 3 months (i.e., on day 28 of Cycle 3, followed by day 28 of Cycle 6 which was further followed by day 28 of Cycle 9). […]
smiles,measurement,setting,value
"Cc1ccc(C(=O)NNC(=O)c2c(C)cccc2Cl)cc1C#Cc1cnc2ccccc2c1 [compound of Formula I, N′-(2-chloro-6-methylbenzoyl)-4-methyl-3-[2-(3-quinolyl)ethynyl]-benzohydrazide]",Best Cytogenetic Response: Complete Response,24 mg (N = 1) ESC,1(100)
same,Best Cytogenetic Response: Major Cytogenetic Response,24 mg (N = 1) ESC,1(100)
same,Best Cytogenetic Response: Minimal Response,24 mg (N = 1) ESC,0
same,Best Cytogenetic Response: Minor Response,24 mg (N = 1) ESC,0
same,Best Cytogenetic Response: No Response,24 mg (N = 1) ESC,0
same,Best Cytogenetic Response: Partial Response,24 mg (N = 1) ESC,0
same,Best Hematologic Response: Complete Response,24 mg (N = 1) ESC,1(100)
same,Best Hematologic Response: Major Hematologic Response,24 mg (N = 1) ESC,1(100)
same,Best Hematologic Response: No Evidence of Leukemia,24 mg (N = 1) ESC,0
same,Best Hematologic Response: No Response,24 mg (N = 1) ESC,0
same,Best Molecular Response: Complete Response,24 mg (N = 1) ESC,0
same,Best Molecular Response: Major Response,24 mg (N = 1) ESC,1(100)
same,Best Molecular Response: No Response,24 mg (N = 1) ESC,0
same,Best Cytogenetic Response: Complete Response,48 mg (N = 3) ESC,2(66.7)
same,Best Cytogenetic Response: Major Cytogenetic Response,48 mg (N = 3) ESC,2(66.7)
same,Best Cytogenetic Response: Minimal Response,48 mg (N = 3) ESC,0
same,Best Cytogenetic Response: Minor Response,48 mg (N = 3) ESC,0
same,Best Cytogenetic Response: No Response,48 mg (N = 3) ESC,1(33.3)
same,Best Cytogenetic Response: Partial Response,48 mg (N = 3) ESC,0
same,Best Hematologic Response: Complete Response,48 mg (N = 3) ESC,3(100)
same,Best Hematologic Response: Major Hematologic Response,48 mg (N = 3) ESC,3(100)
same,Best Hematologic Response: No Evidence of Leukemia,48 mg (N = 3) ESC,0
same,Best Hematologic Response: No Response,48 mg (N = 3) ESC,0
same,Best Molecular Response: Complete Response,48 mg (N = 3) ESC,1(33.3)
same,Best Molecular Response: Major Response,48 mg (N = 3) ESC,1(33.3)
same,Best Molecular Response: No Response,48 mg (N = 3) ESC,2(66.7)
same,Best Cytogenetic Response: Complete Response,90 mg (N = 1) ESC,1(100)
same,Best Cytogenetic Response: Major Cytogenetic Response,90 mg (N = 1) ESC,1(100)
same,Best Cytogenetic Response: Minimal Response,90 mg (N = 1) ESC,0
same,Best Cytogenetic Response: Minor Response,90 mg (N = 1) ESC,0
same,Best Cytogenetic Response: No Response,90 mg (N = 1) ESC,0
same,Best Cytogenetic Response: Partial Response,90 mg (N = 1) ESC,0
same,Best Hematologic Response: Complete Response,90 mg (N = 1) ESC,1(100)
same,Best Hematologic Response: Major Hematologic Response,90 mg (N = 1) ESC,1(100)
same,Best Hematologic Response: No Evidence of Leukemia,90 mg (N = 1) ESC,0
same,Best Hematologic Response: No Response,90 mg (N = 1) ESC,0
same,Best Molecular Response: Complete Response,90 mg (N = 1) ESC,1(100)
same,Best Molecular Response: Major Response,90 mg (N = 1) ESC,1(100)
same,Best Molecular Response: No Response,90 mg (N = 1) ESC,0
same,Best Cytogenetic Response: Complete Response,126 mg (N = 3) ESC,0
same,Best Cytogenetic Response: Major Cytogenetic Response,126 mg (N = 3) ESC,0
same,Best Cytogenetic Response: Minimal Response,126 mg (N = 3) ESC,0
same,Best Cytogenetic Response: Minor Response,126 mg (N = 3) ESC,1(33.3)
same,Best Cytogenetic Response: No Response,126 mg (N = 3) ESC,1(33.3)
same,Best Cytogenetic Response: Partial Response,126 mg (N = 3) ESC,0
same,Best Hematologic Response: Complete Response,126 mg (N = 3) ESC,0
same,Best Hematologic Response: Major Hematologic Response,126 mg (N = 3) ESC,0
same,Best Hematologic Response: No Evidence of Leukemia,126 mg (N = 3) ESC,0
same,Best Hematologic Response: No Response,126 mg (N = 3) ESC,1(33.3)
same,Best Molecular Response: Complete Response,126 mg (N = 3) ESC,0
same,Best Molecular Response: Major Response,126 mg (N = 3) ESC,0
same,Best Molecular Response: No Response,126 mg (N = 3) ESC,2(66.7)
same,maintained CCyR and MMR,2 Ph+ ALL pts,1 pt
same,CCyR with MMR,3 AP CML patients,1 patient
same,PCyR,3 AP CML patients,2 patients
same,complete hematological response (CHR),4 BP CML patients,2 patients
same,disease progression as best response,4 BP CML patients,2 patients
same,Best Cytogenetic Response: Complete Response,66 ang (N = 3) ESC,2(66.7)
same,Best Cytogenetic Response: Minor Response,66 ang (N = 3) ESC,0
same,Best Cytogenetic Response: No Response,66 ang (N = 3) ESC,0
same,Best Hematologic Response: Complete Response,66 ang (N = 3) ESC,0
same,Best Hematologic Response: Major Hematologic Response,66 ang (N = 3) ESC,2(66.7)
same,Best Hematologic Response: No Response,66 ang (N = 3) ESC,1(33.3)
same,Best Molecular Response: Major Response,66 ang (N = 3) ESC,1(33.3)
same,Best Molecular Response: No Response,66 ang (N = 3) ESC,2(66.7)
same,Best Cytogenetic Response: Major Cytogenetic Response,(N = 3) ESC,3(100)
same,Best Cytogenetic Response: Minimal Response,(N = 3) ESC,0
same,Best Cytogenetic Response: Partial Response,(N = 3) ESC,1(33.3)
same,Best Hematologic Response: No Evidence of Leukemia,(N = 3) ESC,2(66.7)
same,Best Molecular Response: Complete Response,(N = 3) ESC,1(33.3)
same,Best Cytogenetic Response: Complete Response,Total ESC,6(54.5)
same,Best Cytogenetic Response: Major Cytogenetic Response,Total ESC,7(63.6)
same,Best Cytogenetic Response: Minimal Response,Total ESC,0
same,Best Cytogenetic Response: Minor Response,Total ESC,1(9.1)
same,Best Cytogenetic Response: No Response,Total ESC,2(18.2)
same,Best Cytogenetic Response: Partial Response,Total ESC,1(9.1)
same,Best Hematologic Response: Complete Response,Total ESC,5(45.5)
same,Best Hematologic Response: Major Hematologic Response,Total ESC,7(63.6)
same,Best Hematologic Response: No Evidence of Leukemia,Total ESC,2(18.2)
same,Best Hematologic Response: No Response,Total ESC,2(18.2)
same,Best Molecular Response: Complete Response,Total ESC,3(27.3)
same,Best Molecular Response: Major Response,Total ESC,4(36.4)
same,Best Molecular Response: No Response,Total ESC,6(54.5)
